Assay results published in ChEMBL document CHEMBL4376834, “Discovery of 4H-Chromen-4-one Derivatives as a New Class of Selective Rho Kinase (ROCK) Inhibitors, which Showed Potent Activity in ex Vivo Diabetic Retinopathy Models” (J Med Chem, 2019).

Tests used:
[1] = molecular target: Cyclin-dependent kinase 14/Cyclin-Y (Homo sapiens, UniProt O94921); test: Inhibition of recombinant full length human CDK14/cyclinY in presence of [gamma-33ATP] by radiometric scintillation counting analysis; format: protein-complex assay
[2] = molecular target: DNA-dependent protein kinase catalytic subunit (Homo sapiens, UniProt P78527); test: Inhibition of recombinant full length human DNA-PK using GST-cMyc-p53 as substrate incubated for 40 mins by fluorescence assay
[3] = molecular target: Myosin light chain kinase 2, skeletal/cardiac muscle (Homo sapiens, UniProt Q9H1R3); test: Inhibition of recombinant full length human MYLK2 using KKLNRTLSFAEPG as substrate measured after 40 mins in presence of [gamma33P]ATP by radiometric scintillation counting analysis
[4] = molecular target: Serine/threonine-protein kinase Chk2 (Homo sapiens, UniProt O96017, I157T); test: Inhibition of recombinant human CHK2 I157T mutant (5 to end residues) using KKKVSRSGLYRSP as substrate incubated for 40 mins in presence of [gamma-33ATP] by radiometric scintillation counting analysis
[5] = molecular target: Serine/threonine-protein kinase D2 (Homo sapiens, UniProt Q9BZL6); test: Inhibition of recombinant full-length human PKD2 using KKLNRTLSVA as substrate incubated for 40 mins in presence of [gamma33P]ATP by radiometric scintillation counting analysis
[6] = molecular target: Serine/threonine-protein kinase ULK3 (Homo sapiens, UniProt Q6PHR2); test: Inhibition of recombinant human full length ULK3 using casein as substrate incubated for 40 mins in presence of [gamma33P]ATP by radiometric scintillation counting analysis
[7] = molecular target: Maternal embryonic leucine zipper kinase (Homo sapiens, UniProt Q14680); test: Inhibition of recombinant human MELK (1 to 340 residues) using KKLNRTLSFAEPG as substrate incubated for 40 mins in presence of [gamma-33ATP by radiometric scintillation counting analysis
[8] = molecular target: Serine/threonine-protein kinase 17A (Homo sapiens, UniProt Q9UEE5); test: Inhibition of recombinant full length human DRAK1 using KKLNRTLSFAEPG as substrate after 40 mins in presence of [gamma-33ATP] by radiometric scintillation counting analysis
[9] = molecular target: Dual specificity protein kinase CLK4 (Homo sapiens, UniProt Q9HAZ1); test: Inhibition of recombinant human CLK4 (128 to end residues) using YRRAAVPPSPSLSR as substrate incubated 40 mins in presence of [gamma-33ATP] by radiometric scintillation counting analysis
SRSF protein kinase 1 = SRSF protein kinase 1 (Homo sapiens, UniProt Q96SB4); test: Inhibition of recombinant human SRPK1 (2 to end residues) using RSRSRSRSRSRSRSR as substrate incubated for 40 mins in presence of [gamma33P]ATP by radiometric scintillation counting analysis
Sequence of SRSF protein kinase 1 (Q96SB4 whole entry): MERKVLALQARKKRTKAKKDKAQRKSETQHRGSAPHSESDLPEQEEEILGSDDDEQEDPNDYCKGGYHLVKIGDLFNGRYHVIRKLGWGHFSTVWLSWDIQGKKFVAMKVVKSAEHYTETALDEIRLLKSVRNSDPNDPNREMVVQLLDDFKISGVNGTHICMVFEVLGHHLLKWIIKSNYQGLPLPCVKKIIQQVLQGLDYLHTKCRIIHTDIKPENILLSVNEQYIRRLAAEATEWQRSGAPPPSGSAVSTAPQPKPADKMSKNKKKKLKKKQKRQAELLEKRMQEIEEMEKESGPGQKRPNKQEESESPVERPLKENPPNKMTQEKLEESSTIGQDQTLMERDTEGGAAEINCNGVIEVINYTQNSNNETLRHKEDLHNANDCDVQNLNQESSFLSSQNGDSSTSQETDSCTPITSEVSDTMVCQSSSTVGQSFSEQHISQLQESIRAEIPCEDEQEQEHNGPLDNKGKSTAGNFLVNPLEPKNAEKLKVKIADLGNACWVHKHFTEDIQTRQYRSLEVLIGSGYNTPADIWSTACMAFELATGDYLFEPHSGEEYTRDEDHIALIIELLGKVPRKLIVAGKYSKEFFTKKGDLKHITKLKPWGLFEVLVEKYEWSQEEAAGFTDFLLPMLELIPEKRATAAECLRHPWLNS

eIF-2-alpha kinase GCN2 = eIF-2-alpha kinase GCN2 (Homo sapiens, UniProt Q9P2K8, E556G); test: Inhibition of recombinant full length human GCN2 E556G mutant using RSRSRSRSRSRSR as substrate after 40 mins in presence of [gamma-33ATP] by radiometric scintillation counting analysis
[10] = molecular target: Serine/threonine-protein kinase 32C (Homo sapiens, UniProt Q86UX6); test: Inhibition of recombinant human full length STK32C using casein as substrate incubated for 120 mins in presence of [gamma33P]ATP by radiometric scintillation counting analysis
[11] = molecular target: TRAF2 and NCK-interacting protein kinase (Homo sapiens, UniProt Q9UKE5); test: Inhibition of human TNIK (1 to 367 residues) using RLGRDKYKTLRQI as substrate incubated for 40 mins in presence of [gamma33P]ATP by radiometric scintillation counting analysis
[12] = molecular target: Inhibitor of nuclear factor kappa-B kinase subunit beta (Homo sapiens, UniProt O14920); test: Inhibition of recombinant full length human IKKbeta using peptide substrate after 40 mins by [gamma-33ATP] by radiometric scintillation counting analysis
[13] = molecular target: Ribosomal protein S6 kinase alpha-2 (Homo sapiens, UniProt Q15349); test: Inhibition of recombinant full length human Rsk3 using KKKNRTLSVA as substrate incubated for 40 mins in presence of [gamma33P]ATP by radiometric scintillation counting analysis
Sequence of Ribosomal protein S6 kinase alpha-2 (Q15349 whole entry): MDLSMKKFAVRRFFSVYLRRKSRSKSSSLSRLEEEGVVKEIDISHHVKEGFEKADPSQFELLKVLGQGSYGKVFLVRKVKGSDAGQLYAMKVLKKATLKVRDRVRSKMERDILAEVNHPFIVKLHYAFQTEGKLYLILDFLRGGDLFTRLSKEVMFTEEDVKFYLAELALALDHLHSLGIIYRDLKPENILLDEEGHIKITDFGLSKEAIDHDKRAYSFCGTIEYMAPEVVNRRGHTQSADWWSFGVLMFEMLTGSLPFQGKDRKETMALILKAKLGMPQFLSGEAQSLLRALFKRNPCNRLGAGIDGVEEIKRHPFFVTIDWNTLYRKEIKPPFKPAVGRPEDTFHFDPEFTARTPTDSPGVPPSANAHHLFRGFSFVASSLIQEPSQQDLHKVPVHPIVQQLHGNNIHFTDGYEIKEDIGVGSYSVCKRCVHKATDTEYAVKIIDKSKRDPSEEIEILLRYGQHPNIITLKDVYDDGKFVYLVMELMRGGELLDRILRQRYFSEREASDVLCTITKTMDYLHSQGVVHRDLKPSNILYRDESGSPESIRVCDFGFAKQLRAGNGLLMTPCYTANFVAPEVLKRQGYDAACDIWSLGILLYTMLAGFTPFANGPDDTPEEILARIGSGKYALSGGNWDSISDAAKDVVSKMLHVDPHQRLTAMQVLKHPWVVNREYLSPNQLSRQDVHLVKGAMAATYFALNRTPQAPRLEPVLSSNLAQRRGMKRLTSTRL

[14] = Inhibition of recombinant human TIE2 Q939H/Q940H/ R849W triple mutant (771 to end residues) using EFPIYDFLPAKKK as substrate incubated for 40 mins in presence of [gamma33P]ATP by radiometric scintillation counting analysis
CDK12/Cyclin K = CDK12/Cyclin K (Homo sapiens, UniProt Q9NYV4); test: Inhibition of recombinant full length human CDK12/cyclinK using RSRSRSRSRSRSR as substrate incubated for 120 mins in presence of [gamma-33ATP] by radiometric scintillation counting analysis; format: protein-complex assay
Activated CDC42 kinase 1 = Activated CDC42 kinase 1 (Homo sapiens, UniProt Q07912); test: Inhibition of human recombinant ACK1 (1 to 389 residues) using EFPIYDFLPAKKK as substrate incubated for 40 mins in presence of [gamma-33P]ATP by radiometric scintillation counting analysis
Sequence of Activated CDC42 kinase 1 (Q07912 whole entry, the tested form may be a part): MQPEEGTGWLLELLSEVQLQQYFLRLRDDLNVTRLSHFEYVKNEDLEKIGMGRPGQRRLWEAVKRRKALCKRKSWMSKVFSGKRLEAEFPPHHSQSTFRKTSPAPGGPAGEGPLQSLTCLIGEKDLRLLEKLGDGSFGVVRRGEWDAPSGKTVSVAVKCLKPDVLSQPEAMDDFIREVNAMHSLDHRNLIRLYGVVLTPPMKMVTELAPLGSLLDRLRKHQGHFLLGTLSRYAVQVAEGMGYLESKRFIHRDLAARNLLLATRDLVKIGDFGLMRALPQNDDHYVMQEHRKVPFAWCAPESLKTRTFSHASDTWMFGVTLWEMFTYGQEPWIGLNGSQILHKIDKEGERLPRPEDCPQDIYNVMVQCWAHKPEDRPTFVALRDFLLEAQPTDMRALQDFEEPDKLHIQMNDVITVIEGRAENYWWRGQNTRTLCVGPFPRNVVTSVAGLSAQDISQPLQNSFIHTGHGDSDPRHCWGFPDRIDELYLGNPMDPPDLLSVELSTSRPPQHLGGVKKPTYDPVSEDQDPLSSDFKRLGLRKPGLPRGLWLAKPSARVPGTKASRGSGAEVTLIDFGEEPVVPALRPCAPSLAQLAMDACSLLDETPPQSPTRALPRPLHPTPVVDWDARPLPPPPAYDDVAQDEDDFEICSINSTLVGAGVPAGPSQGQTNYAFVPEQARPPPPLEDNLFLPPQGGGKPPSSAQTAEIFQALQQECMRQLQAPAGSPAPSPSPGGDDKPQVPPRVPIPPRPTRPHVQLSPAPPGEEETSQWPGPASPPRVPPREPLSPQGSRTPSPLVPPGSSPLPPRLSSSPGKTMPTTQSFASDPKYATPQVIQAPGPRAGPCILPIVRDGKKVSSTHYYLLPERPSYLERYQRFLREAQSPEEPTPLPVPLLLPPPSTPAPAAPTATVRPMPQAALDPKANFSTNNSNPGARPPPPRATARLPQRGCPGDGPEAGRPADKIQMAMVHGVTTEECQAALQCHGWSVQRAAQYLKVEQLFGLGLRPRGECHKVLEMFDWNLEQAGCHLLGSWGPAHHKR

[15] = molecular target: Serine/threonine-protein kinase 32A (Homo sapiens, UniProt Q8WU08); test: Inhibition of recombinant human full length STK32A using casein as substrate incubated for 40 mins in presence of [gamma33P]ATP by radiometric scintillation counting analysis
Sequence of Serine/threonine-protein kinase 32A (Q8WU08 whole entry): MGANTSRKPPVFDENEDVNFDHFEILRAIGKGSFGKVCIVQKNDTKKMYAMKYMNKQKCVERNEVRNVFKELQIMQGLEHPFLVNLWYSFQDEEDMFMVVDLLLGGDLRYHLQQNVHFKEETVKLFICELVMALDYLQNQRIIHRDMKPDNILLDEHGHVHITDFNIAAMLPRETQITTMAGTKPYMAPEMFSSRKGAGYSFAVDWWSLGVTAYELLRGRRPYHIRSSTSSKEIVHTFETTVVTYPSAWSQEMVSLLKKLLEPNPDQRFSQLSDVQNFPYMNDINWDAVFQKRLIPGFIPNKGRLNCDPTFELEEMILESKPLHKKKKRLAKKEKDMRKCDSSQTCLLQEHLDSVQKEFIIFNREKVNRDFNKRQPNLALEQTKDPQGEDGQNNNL

[16] = molecular target: cAMP-dependent protein kinase catalytic subunit PRKX (Homo sapiens, UniProt P51817); test: Inhibition of recombinant human full length PrKX using RRRLSFAEPG as substrate incubated for 40 mins in presence of [gamma33P]ATP by radiometric scintillation counting analysis
[17] = Half life in rat liver microsomes measured upto 45 mins in presence of NADPH by LC-MS analysis; format: ADME, Microsome
[18] = molecular target: Tyrosine-protein kinase JAK2 (Homo sapiens, UniProt O60674); test: Inhibition of human recombinant JAK2 (808 to end residues) using KTFCGTPEYLAPE as substrate after 40 mins by [gamma-33ATP] by radiometric scintillation counting analysis
Sequence of Tyrosine-protein kinase JAK2 (O60674 whole entry): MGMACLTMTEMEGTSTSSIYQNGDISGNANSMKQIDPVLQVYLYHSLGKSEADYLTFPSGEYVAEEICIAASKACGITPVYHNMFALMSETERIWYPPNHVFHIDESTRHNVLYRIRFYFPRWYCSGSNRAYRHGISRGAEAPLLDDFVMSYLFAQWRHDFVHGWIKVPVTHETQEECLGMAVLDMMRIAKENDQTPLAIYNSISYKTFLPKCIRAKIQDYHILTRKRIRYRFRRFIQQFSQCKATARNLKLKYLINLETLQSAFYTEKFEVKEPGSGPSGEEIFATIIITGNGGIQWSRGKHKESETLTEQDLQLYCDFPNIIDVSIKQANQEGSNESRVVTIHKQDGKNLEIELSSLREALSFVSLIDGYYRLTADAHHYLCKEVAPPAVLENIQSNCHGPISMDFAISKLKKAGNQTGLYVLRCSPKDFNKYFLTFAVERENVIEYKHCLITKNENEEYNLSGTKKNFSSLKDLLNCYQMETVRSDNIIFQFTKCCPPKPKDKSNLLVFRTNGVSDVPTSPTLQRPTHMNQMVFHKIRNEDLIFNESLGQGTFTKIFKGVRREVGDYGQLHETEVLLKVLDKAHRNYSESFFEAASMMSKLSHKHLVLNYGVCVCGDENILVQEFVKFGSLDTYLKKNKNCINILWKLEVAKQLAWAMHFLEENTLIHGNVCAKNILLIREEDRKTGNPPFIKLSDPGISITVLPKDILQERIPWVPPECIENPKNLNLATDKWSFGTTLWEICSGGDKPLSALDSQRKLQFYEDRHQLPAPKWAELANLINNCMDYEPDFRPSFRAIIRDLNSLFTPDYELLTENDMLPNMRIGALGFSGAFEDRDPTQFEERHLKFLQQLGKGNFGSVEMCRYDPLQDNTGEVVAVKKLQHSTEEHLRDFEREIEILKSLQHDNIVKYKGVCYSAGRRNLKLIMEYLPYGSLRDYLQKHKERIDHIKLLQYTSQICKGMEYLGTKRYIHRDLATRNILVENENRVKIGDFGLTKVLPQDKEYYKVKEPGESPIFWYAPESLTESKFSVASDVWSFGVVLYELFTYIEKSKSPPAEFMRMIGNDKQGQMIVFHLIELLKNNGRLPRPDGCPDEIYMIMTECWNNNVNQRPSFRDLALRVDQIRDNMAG

SRSF protein kinase 2 = SRSF protein kinase 2 (Homo sapiens, UniProt P78362); test: Inhibition of recombinant human SRPK2 (46 to end residues) using RSRSRSRSRSRSRSR as substrate incubated for 40 mins in presence of [gamma33P]ATP by radiometric scintillation counting analysis
Sequence of SRSF protein kinase 2 (P78362 whole entry, the tested form may be a part): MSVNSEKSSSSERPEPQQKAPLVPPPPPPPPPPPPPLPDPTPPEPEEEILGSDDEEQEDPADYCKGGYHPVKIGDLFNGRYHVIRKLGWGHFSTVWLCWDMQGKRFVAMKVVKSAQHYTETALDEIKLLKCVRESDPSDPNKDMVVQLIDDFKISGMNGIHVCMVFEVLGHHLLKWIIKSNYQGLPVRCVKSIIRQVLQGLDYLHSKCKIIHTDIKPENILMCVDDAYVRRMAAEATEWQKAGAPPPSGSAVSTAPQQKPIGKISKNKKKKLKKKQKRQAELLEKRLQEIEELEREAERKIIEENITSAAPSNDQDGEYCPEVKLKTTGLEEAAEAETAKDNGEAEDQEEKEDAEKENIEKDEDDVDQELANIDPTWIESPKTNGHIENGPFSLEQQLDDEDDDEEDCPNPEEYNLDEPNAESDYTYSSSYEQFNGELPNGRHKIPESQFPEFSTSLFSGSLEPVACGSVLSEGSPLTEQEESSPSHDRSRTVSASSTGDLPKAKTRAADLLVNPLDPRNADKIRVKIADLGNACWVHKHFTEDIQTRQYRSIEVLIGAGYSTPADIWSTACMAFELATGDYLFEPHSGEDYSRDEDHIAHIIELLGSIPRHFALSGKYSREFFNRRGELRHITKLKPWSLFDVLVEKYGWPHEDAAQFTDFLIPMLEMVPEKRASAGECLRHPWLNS

Ephrin type-A receptor 2 = Ephrin type-A receptor 2 (Homo sapiens, UniProt P29317); test: Inhibition of recombinant human EphA2 (596 to 900 residues) using poly(Glu, Tyr) 4:1 as substrate after 40 mins in presence of [gamma-33ATP] by radiometric scintillation counting analysis
[19] = molecular target: BDNF/NT-3 growth factors receptor (Homo sapiens, UniProt Q16620); test: Inhibition of recombinant human TRKB (455 to end residues) using poly(Glu, Tyr) 4:1 as substrate incubated for 40 mins in presence of [gamma33P]ATP by radiometric scintillation counting analysis
[20] = molecular target: Serine/threonine-protein kinase Nek7 (Homo sapiens, UniProt Q8TDX7); test: Inhibition of recombinant human NEK7 (2 to end residues) using FLAKSFGSPNRAYKK as substrate measured after 40 mins in presence of [gamma33P]ATP by radiometric scintillation counting analysis
Sequence of Serine/threonine-protein kinase Nek7 (Q8TDX7 whole entry): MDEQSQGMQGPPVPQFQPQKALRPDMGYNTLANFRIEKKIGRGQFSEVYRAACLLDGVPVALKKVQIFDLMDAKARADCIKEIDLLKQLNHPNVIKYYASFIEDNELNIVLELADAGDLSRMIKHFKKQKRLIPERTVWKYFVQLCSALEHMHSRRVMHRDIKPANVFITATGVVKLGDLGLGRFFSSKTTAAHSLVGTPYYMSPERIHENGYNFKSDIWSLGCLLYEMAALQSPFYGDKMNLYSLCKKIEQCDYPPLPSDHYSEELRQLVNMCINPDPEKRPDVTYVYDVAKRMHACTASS

SMILES: CN(C)c1ccc(C(=O)Nc2cccc(NC(=O)COc3ccc4c(=O)ccoc4c3)c2)cc1
- IC50 [1]: > 10 µM
- IC50 [2]: > 10 µM
- IC50 [3]: > 10 µM
- IC50 [4]: > 10 µM
- IC50 [5]: > 10 µM
- IC50 [6]: > 10 µM
- IC50 [7]: > 10 µM
- IC50 [8]: > 10 µM
- IC50 [9]: > 10 µM
- IC50 (SRSF protein kinase 1): > 10 µM
- IC50 (eIF-2-alpha kinase GCN2): > 10 µM
- IC50 [10]: > 10 µM
- IC50 [11]: > 10 µM
- IC50 [12]: > 10 µM
- IC50 [13]: > 10 µM
- IC50 [14]: > 10 µM
- IC50 (CDK12/Cyclin K): > 10 µM
- IC50 (Activated CDC42 kinase 1): > 10 µM
- IC50 [15]: > 10 µM
- IC50 [16]: > 10 µM
- half-life [17]: 1.1 min
- IC50 [18]: > 10 µM
- IC50 (SRSF protein kinase 2): > 10 µM
- IC50 (Ephrin type-A receptor 2): > 10 µM
- IC50 [19]: > 10 µM
- IC50 [20]: > 10 µM
